Source: ChEMBL document CHEMBL1152468, “Fitness cost and impaired survival in penicillin-resistant Streptococcus gordonii isolates selected in the laboratory” (2008)
Converted amounts (≈) assume the structure as drawn. The source made the active and inactive calls. The calls are words filed in the database; no cut-off is given here.

What was measured:
[1] = tested on: Streptococcus gordonii; experiment: Antimicrobial activity against penicillin-resistant Streptococcus gordonii PR1_2 mutant; assay type: functional
[2] = tested on: Streptococcus gordonii; experiment: Antimicrobial activity against wild type Streptococcus gordonii assessed as logarithmic reduction in viability at stationary phase of growth after 70 hrs; assay type: functional
[3] = tested on: Streptococcus gordonii; experiment: Ratio of generation time for wild type Streptococcus gordonii to generation time for penicillin-resistant Streptococcus gordonii PR1_2evolved mutant at mid-logarithmic phase of growth; assay type: functional
[4] = tested on: Streptococcus gordonii; experiment: Antimicrobial activity against wild type Streptococcus gordonii assessed as generation time at mid-logarithmic phase of growth; assay type: functional
[5] = tested on: Streptococcus gordonii; experiment: Ratio of generation time for wild type Streptococcus gordonii to generation time for penicillin-resistant Streptococcus gordonii PR1_2 mutant at mid-logarithmic phase of growth; assay type: functional
[6] = tested on: Streptococcus gordonii; experiment: Antimicrobial activity against penicillin-resistant Streptococcus gordonii PR1_2evolved mutant co-cultured with wild type Streptococcus gordoni assessed as loss of viability at stationary phase of growth at 0.5 ug/mL after 70 hrs relative to wild type; assay type: functional, organism-based
[7] = tested on: Streptococcus gordonii; experiment: Antimicrobial activity against penicillin-resistant Streptococcus gordonii PR1_2evolved mutant assessed as generation time at mid-logarithmic phase of growth; assay type: functional
[8] = tested on: Streptococcus gordonii; experiment: Antimicrobial activity against wild type Streptococcus gordonii; assay type: functional
[9] = tested on: Streptococcus gordonii; experiment: Antimicrobial activity against penicillin-resistant Streptococcus gordonii PR1_2 mutant assessed as logarithmic reduction in viability at stationary phase of growth after 70 hrs; assay type: functional
[10] = tested on: Streptococcus gordonii; experiment: Antimicrobial activity against penicillin-resistant Streptococcus gordonii PR1_2 mutant assessed as generation time at mid-logarithmic phase of growth; assay type: functional
[11] = tested on: Streptococcus gordonii; experiment: Antimicrobial activity against penicillin-resistant Streptococcus gordonii PR1_2evolved mutant co-cultured with wild type Streptococcus gordoni assessed as loss of viability at stationary phase of growth at 0.5 ug/mL after 15 hrs; assay type: functional, organism-based

CC1(C)S[C@@H]2[C@H](NC(=O)Cc3ccccc3)C(=O)N2[C@H]1C(=O)O [PENICILLIN G] showed an MIC [1] of 2 µg/mL (≈ 5.98 µM), an Activity [2] of 2 log10CFU/ml and a Ratio [3] of 1.06. For the same compound, the Activity [4] was 48.4 min, the Ratio [5] was 0.8 and the Activity [6] was “Active”. The Activity [7] was 45 min, the MIC [8] was 0.008 µg/mL (≈ 0.0239 µM) and the Activity [9] was greater than 4 log10CFU/ml. The Activity [10] was 60.6 min and the Activity [11] was “Active”.
